Data: patent US8581005B2, “Mitochondrial inhibitors to treat human disease” (Albert Einstein College of Medicine of Yeshiva University, priority 2009, dated 2013)
Where two headings read alike, the source gives them in different places.

Assays:
[1] = tested on: Sacchromyces cerevisiae strain J47D; experiment: In vitro cell proliferation assay (yeast proliferation); assay type: cell-based; design: key to Inhibition of yeast proliferation: (+) Complete inhibition (no proliferation); (−) no inhibition (normal proliferation); (+/−) partial inhibition; (i) compound insoluble
Protocol: (§1) Sacchromyces cerevisiae strain J47D in log phase growth, was plated in 96 well dishes at 1.5×10^4 cells/well in YEPD media. Magmas inhibitors were diluted in DMSO and added at various concentrations (range 0 mM to 1 mM) to each well in triplicate at a final DMSC concentration of 1%. Samples were cultured at 30° C. in a Bioscreen C MBR incubator (Growth Curves USA, Piscataway, N.J.) and optical density (OD) readings were measured every 30 minutes for the indicated time in the plots. Cell proliferation data was analyzed and plotted using Microsoft Excel. Standard deviations were smaller than 2% of the mean OD value (n=3), and each experiment was performed at least two independent times.
Reduced Magmas function caused by siRNA knockdown or by mutations in Magmas causes growth inhibition and cell cycle arrest. To assay whether the compounds were active, their ability to inhibit yeast proliferation was measured. The results obtained in yeast are equivalent to those found in mammalian cells in part because the human homolog is fully functional in yeast and the target region is identical across all eukaryotic species.

[2] = tested on: yeast strains containing several different Magmas mutations expressed on a plasmid; experiment: Yeast proliferation assay with Magmas mutations and over-expression; assay type: cell-based
Excerpt: Mutations in Magmas were introduced by error prone PCR and the changes were identified by sequencing. Only genes with a single amino acid change were further analyzed. The genes encoding the mutations were spliced into plasmid pRS315 containing the selectable […] marker (leu) and transfected into yeast where the wt genomic copy was replaced by a his cassette and the essential Magmas activity was maintained by wt Magmas in the plasmid pRS316 (ura). The plasmid containing the wt Magmas gene was lost by selection in media containing FOA, resulting in yeast strains only expressing the mutant gene. Total yeast protein from each of the strains was separated by SDS-PAGE, and transferred to nitrocellulose membranes. The membranes were sequentially incubated with rabbit anti-Magmas antibody, HRP conjugated goat anti-rabbit antibody and chemiluminescence reagent. The signal was captured with a Fujifilm LAS-3000 Imager and the data analyzed with ImageGage software.
as §1
All of these stains express similar levels of Magmas protein, which is approximately 4 fold higher than the haploid control (Wt genomic).

purified yeast Magmas = target: T1, purified yeast Magmas (Saccharomyces cerevisiae, UniProt P42949); experiment: Binding to Magmas by fluorescence emission spectrum (tryptophan)
T1 sequence (P42949 1-149): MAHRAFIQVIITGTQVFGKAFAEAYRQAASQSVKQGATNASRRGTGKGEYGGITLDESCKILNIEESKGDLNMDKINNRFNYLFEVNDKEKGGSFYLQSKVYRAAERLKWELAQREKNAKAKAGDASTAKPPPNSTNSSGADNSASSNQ
Protocol: (§2) The binding of 9 to both purified yeast and mouse Magmas was evaluated. The fluorescence spectrum of tryptophan was measured for the binding to the yeast target and the fluorescence spectrum of tyrosine was measured for the binding to the murine target. The spectral shift observed at varying concentrations of 9 was used to determine the binding constant (FIG. 3).

purified mouse Magmas = target: T2, purified mouse Magmas (Mus musculus, UniProt Q9CQV1); experiment: Binding to Magmas by fluorescence emission spectrum (tyrosine); conditions: murine Magmas, FIG. 3B; read-out: calculated Kd
T2 sequence (Q9CQV1 1-125): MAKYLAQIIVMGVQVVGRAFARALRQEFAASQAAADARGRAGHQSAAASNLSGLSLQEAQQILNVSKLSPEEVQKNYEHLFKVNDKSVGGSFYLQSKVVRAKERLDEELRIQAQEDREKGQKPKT
Protocol: as §2

K562 = experiment: Viability of human cells, trypan blue dye exclusion; assay type: cell-based; design: key: (+) Viable; (−) dead; (+/−) partial viability; conditions: 48 hrs
Protocol: (§3) Cell lines derived from human hematological malignancies and glioblastoma multiforme, and human umbilical vascular endothelial cells (HUVEC) were cultured in standard media with the concentrations of 9 indicated in Table 3. Viable cells were scored by trypan blue dye exclusion at 48 hrs. The HUVEC population consisted of a pool of primary cells isolated from the blood vessels of 4 umbilical cords. Each cell type was tested in duplicate in at least three independent experiments.

Karpas = experiment: as above; assay type: cell-based; design: key: (+) Viable; (−) dead; (+/−) partial viability; conditions: 48 hrs
Protocol: as §3

Pfeiffer = experiment: as above; assay type: cell-based; design: key: (+) Viable; (−) dead; (+/−) partial viability; conditions: 48 hrs
Protocol: as §3

Toledo = experiment: as above; assay type: cell-based; design: key: (+) Viable; (−) dead; (+/−) partial viability; conditions: 48 hrs
Protocol: as §3

U118 = experiment: as above; assay type: cell-based; design: key: (+) Viable; (−) dead; (+/−) partial viability; conditions: 48 hrs
Protocol: as §3

U87 = experiment: as above; assay type: cell-based; design: key: (+) Viable; (−) dead; (+/−) partial viability; conditions: 48 hrs
Protocol: as §3

HUVEC = experiment: as above; assay type: cell-based; design: key to viability of human cells: (+) Viable; (−) dead; (+/−) partial viability; conditions: for viability of human cells: HUVEC, 48 hrs
Protocol: as §3

HeLa cells = experiment: Mitotracker Red mitochondrial activity; assay type: cell-based; conditions: 6 μM for 12 hours
Protocol: HeLa cells were treated with 6 μM Compound 9 for 12 hours. The cells were then incubated with Mitotracker Red (100 nM) for 15 minutes, washed, fixed with formaldehyde, and examined by fluorescent microscopy. […] This confirms that the invention affects mitochondrial activity.

## c1ccc(C2=Nc3ccccc3OC2)cc1 [Compound 1]
[1]; doses up to and including 6 μM
  Effect on yeast proliferation: not effective

## O=[N+]([O-])c1ccc2c(c1)N=C(c1ccccc1)CO2 [Compound 2]
[1]; doses up to and including 6 μM
  Effect on yeast proliferation: not effective

## Clc1ccc2c(c1)N=C(c1ccccc1)CO2 [Compound 3]
[1]; doses up to and including 6 μM
  Effect on yeast proliferation: not effective

## Clc1ccc2c(c1)C=CC(c1ccccc1)O2 (stereo not drawn) [Compound 4]
[1]; 1 μM
  Inhibition of yeast proliferation: −
[1]; 10 μM
  Inhibition of yeast proliferation: −
[1]; 100 μM
  Inhibition of yeast proliferation: +
[1]; 1 mM
  Inhibition of yeast proliferation: i

## O=[N+]([O-])c1ccc2c(c1)C=CC(c1ccccc1)O2 (stereo not drawn) [Compound 5]
[1]; 1 μM
  Inhibition of yeast proliferation: −
[1]; 10 μM
  Inhibition of yeast proliferation: −
[1]; 100 μM
  Inhibition of yeast proliferation: −
[1]; 1 mM
  Inhibition of yeast proliferation: −
[1]; all concentrations
  Effect on yeast proliferation: inactive

## Brc1ccc2c(c1)C=CC(c1ccccc1)O2 (stereo not drawn) [Compound 6]
[1]; 1 μM
  Inhibition of yeast proliferation: −
[1]; 10 μM
  Effect on yeast proliferation: partially inhibitory
  Inhibition of yeast proliferation: +/−
[1]; 100 μM
  Inhibition of yeast proliferation: +
[1]; 1 mM
  Inhibition of yeast proliferation: +

## Oc1cccc2c1OC(c1ccccc1)C=C2 (stereo not drawn) [Compound 7]
[1]; doses up to and including 6 μM
  Effect on yeast proliferation: not effective

## CCCCCCCCC1C=Cc2cc([N+](=O)[O-])ccc2O1 (stereo not drawn) [Compound 8]
[1]; 1 μM
  Inhibition of yeast proliferation: −
[1]; 10 μM
  Inhibition of yeast proliferation: −
[1]; 100 μM
  Inhibition of yeast proliferation: +
[1]; 1 mM
  Inhibition of yeast proliferation: i

## CCC1=C(C)/C(=C/c2ccc(C(=O)NC(=N)N)cc2)CCC1(C)C [Compound 9]
[1]; 1 μM
  Inhibition of yeast proliferation: −
[1]; 4 μM
  Effect on yeast proliferation: significant and reproducible inhibition
  lengthening of the time to half maximal growth: 1.8 times
[1]; 10 μM
  Effect on yeast proliferation: fully inhibited growth
  Inhibition of yeast proliferation: +
[1]; 100 μM
  Inhibition of yeast proliferation: +
[1]; 1 mM
  Inhibition of yeast proliferation: +
[2]; Magmas A104S
  Sensitivity of yeast to Compound 9: increased sensitivity
[2]; Magmas N84T vs Wt plasmid
  Sensitivity of yeast to Compound 9: increased resistance
[2]; over-expression of Magmas: Wt plasmid vs Wt genomic
  Sensitivity of yeast to Compound 9: reduces sensitivity
Purified yeast Magmas; yeast Magmas, FIG. 3A, read-out: calculated Kd
  Kd: 33 µM
Purified yeast Magmas; yeast target, read-out: binding constant
  Kd: 34 ± 2 µM
Purified mouse Magmas
  Kd: 36 µM
K562; K562, 2 um
  viability of human cells: +/−
K562; K562, 4 um
  viability of human cells: +/−
K562; K562, 6 um
  viability of human cells: −
K562; K562, 8 um
  viability of human cells: −
K562; K562, 12 um
  viability of human cells: −
K562; K562, 16 um
  viability of human cells: −
K562; K562, 20 um
  viability of human cells: −
K562; K562, 24 um
  viability of human cells: −
Karpas; 2 um
  viability of human cells: +/−
Karpas; 4 um
  viability of human cells: +/−
Karpas; 6 um
  viability of human cells: +/−
Karpas; 8 um
  viability of human cells: −
Karpas; 12 um
  viability of human cells: −
Karpas; 16 um
  viability of human cells: −
Karpas; 20 um
  viability of human cells: −
Karpas; 24 um
  viability of human cells: −
Pfeiffer; 2 um
  viability of human cells: +/−
Pfeiffer; 4 um
  viability of human cells: +/−
Pfeiffer; 6 um
  viability of human cells: −
Pfeiffer; 8 um
  viability of human cells: −
Pfeiffer; 12 um
  viability of human cells: −
Pfeiffer; 16 um
  viability of human cells: −
Pfeiffer; 20 um
  viability of human cells: −
Pfeiffer; 24 um
  viability of human cells: −
Toledo; 2 um
  viability of human cells: +/−
Toledo; 4 um
  viability of human cells: +/−
Toledo; 6 um
  viability of human cells: −
Toledo; 8 um
  viability of human cells: −
Toledo; 12 um
  viability of human cells: −
Toledo; 16 um
  viability of human cells: −
Toledo; 20 um
  viability of human cells: −
Toledo; 24 um
  viability of human cells: −
U118; U118, 2 um
  viability of human cells: +/−
U118; U118, 4 um
  viability of human cells: −
U118; U118, 6 um
  viability of human cells: −
U118; U118, 8 um
  viability of human cells: −
U118; U118, 12 um
  viability of human cells: −
U118; U118, 16 um
  viability of human cells: −
U118; U118, 20 um
  viability of human cells: −
U118; U118, 24 um
  viability of human cells: −
U87; U87, 2 um
  viability of human cells: +/−
U87; U87, 4 um
  viability of human cells: +/−
U87; U87, 6 um
  viability of human cells: −
U87; U87, 8 um
  viability of human cells: −
U87; U87, 12 um
  viability of human cells: −
U87; U87, 16 um
  viability of human cells: −
U87; U87, 20 um
  viability of human cells: −
U87; U87, 24 um
  viability of human cells: −
HUVEC; 2 um
  viability of human cells: +
HUVEC; 4 um
  viability of human cells: +
HUVEC; 6 um
  viability of human cells: +
HUVEC; 8 um
  viability of human cells: +
HUVEC; 12 um
  viability of human cells: +
HUVEC; 16 um
  viability of human cells: +
HUVEC; 20 um
  viability of human cells: +/−
HUVEC; 24 um
  viability of human cells: −
HUVEC; tumor cell lines vs HUVEC, viability at 48 hrs
  sensitivity of tumor cell lines relative to normal primary cells (HUVEC): 4 to 5 fold
HeLa cells
  Mitotracker Red intensity: reduced
